Data set [1] can be described thus: Solubility of the drug powder in water.
The test system of data set [2] is treatment-adherent patients with treatment-resistant depression. In words: Analysis of treatment-adherent patients of the Phase 3 trial (Example 2). Particulars: both, human, in vivo, 6 weeks. The procedure:
It was discovered in this study that measurement of plasma drug concentrations is a direct method of assessing treatment adherence.
(§1) In the patients of Example 1, plasma samples were collected after up to 6 weeks of treatment in the clinical trial (end of treatment visit) and analyzed.
(§2) The selected drug concentration cutoffs approximate the lowest observed concentrations 24 hours after the last dose of the study drug under 100% adherent conditions. The 15 ng/mL threshold at 24 hours after the last dose corresponds to a plasma concentration of about 19 ng/mL at about 12 hours after a dose that is administered after steady state has been achieved (e.g., day 42).
Other efficacy assessments included Quick Inventory Depressive Symptoms-Self Report (QIDS-SR-16), Hamilton Anxiety Rating Scale, and Cognition and Physical Functioning Questionnaire (CPFQ).
Demographics and baseline characteristics were similar across both treatment groups.

Data set [3] in a line: Pharmacokinetics after administration of the subject combination. Particulars: for accumulation ratio at steady state based on AUC0-12 / accumulation ratio at steady state based on Cmax: given as the subject combination; for AUC0-12 of metabolite relative to that of bupropion / Cmax of metabolite relative to peak level of bupropion: after administration of the subject combination; for apparent elimination half-life (metabolites): in vivo.

Data set [4] is described as follows: Plasma drug concentration cutoffs for treatment adherence. Particulars: human, in vivo. The protocol:
as §1, §2

The nature of another data set: Plasma protein binding. Conditions: plasma. Format: in vitro ADME.
In data set [5] the test system is patients with treatment resistant depression (TRD). In words: Phase 3 randomized double-blind active controlled trial of DM/BU in treatment resistant depression (Example 1). Format: in vivo, human.
Source text: Inclusion criteria for the open-label period included males or females 18-65 years of age, a history of inadequate response to 1 or 2 prior antidepressant treatments, established by the Antidepressant Treatment Response Questionnaire (ATRQ), and a Hamilton Depression Rating Scale (HAMD-17) total score of ≥18. Inclusion criteria for the double-blind period included inadequate response to 2 or 3 prior antidepressant treatments, including open-label period failure. Exclusion criteria included a history of electroconvulsive therapy, vagus nerve stimulation, transcranial magnetic stimulation or any experimental central nervous system treatment during the current episode or in the past 6 months, schizophrenia, bipolar disorder, obsessive compulsive disorder, psychiatric symptoms secondary to any other general medical condition.
The change in depressive symptoms over time was measured using the Montgomery-Åsberg Depression Rating Scale (MADRS) and the Quick Inventory of Depressive Symptomatology-Self-Rated (QIDS-SR-16). The primary endpoint was the change from baseline in the MADRS after 6 weeks of treatment. The key secondary endpoints were the change from baseline in the MADRS after 1 week of treatment, after 2 weeks of treatment, the average change over entire 6-week double-blind treatment period, and the Sheehan Disability Scale (SDS). Other pre-specified secondary efficacy variables included the Cognitive subscale of the Massachusetts General Hospital Cognitive and Physical Functioning Questionnaire (CPFQ), and the Hamilton Anxiety Scale (HAM-A).
The subject of a further data set is plasma protein. In words: Plasma protein binding. Format: in vitro ADME. Particulars: metabolites of bupropion.
Where [6] appears, read: subject combination administered with food.

The structures appear in SMILES notation. Where a name gives a salt, the structure may show the parent alone. Read-outs that look alike come from different tables or passages of the source.

Five compounds from patent US20240165104A1, “TREATMENT OF DEPRESSION” (priority 2021, published 2024) can be followed below.

Regarding `CC(NC(C)(C)C)C(=O)c1cccc(Cl)c1.Cl` (racemic) [bupropion, (±)-1-(3-chlorophenyl)-2-[(1,1-dimethylethyl)amino]-1-propanone hydrochloride], in data set [1], the solubility in water result is “highly soluble in water”. In data set [2], the Blood pressure increased is given as 0 (0.0%), the Dizziness is recorded as 0 (0.0%), the Dry mouth was 3 (2.3%) and the Headache was 6 (4.5%). In addition, in data set [2], the Nasopharyngitis is recorded as 0 (0.0%), the Nausea was 2 (1.5%), the Somnolence is on record as 2 (1.5%) and the “rate of discontinuation due to adverse events” value is 0.8%. In addition, in data set [3], the “accumulation ratio at steady state based on AUC0-12” value worked out at 1.5 and the “accumulation ratio at steady state based on Cmax” value was 1.1. Besides, the Tmax in data set [3] (human, plasma, oral) is about 2 h. Moreover, in data set [3] (setting [6]), the “increase of AUC0-12 with food” value is 6% and the “increase of Cmax with food” value was 3%. The compound further yielded a concentration at 24 h in data set [4] of about 10 ng/mL. Also, the fraction unbound in “Plasma protein binding” was 0.16. Further, in data set [5] (% of patients, p=0.012), the “rate of remission from depression (QIDS-SR-16≤5) at Week 6” value amounted to 8.2%. The “rate of discontinuation due to adverse events” value in data set [5] (both, human, in vivo, 6 weeks) is 1.9%. In addition, the “MADRS mean reduction averaged over the entire 6-week treatment period” value in data set [5] (key secondary endpoint, DM/BU n=154, bupropion n=155, p=0.031) is 6.7. For the same compound, the “MADRS mean reduction at Week 1” value in data set [5] (key secondary endpoint, p=0.02) came out at 3.6. Besides, the “MADRS mean reduction at Week 2” value in data set [5] (key secondary endpoint, p=0.035) is on record as 6.1. In data set [5] (p=0.013), the “QIDS-SR-16 mean reduction averaged over the entire 6-week treatment period” value was found to be 2.3. Also, in data set [5] (primary endpoint, p=0.117, did not reach statistical significance), the “MADRS mean reduction at Week 6” value is 9.4.
With `COc1ccc2c(c1)[C@]13CCCC[C@@H]1[C@H](C2)N(C)CC3` [dextromethorphan, morphinan, 3-methoxy-17-methyl-, (9α, 13α, 14α), hydrobromide monohydrate], the solubility in water entry in data set [1] is recorded as “sparingly soluble in water”. Moreover, the “increase of mean elimination half-life as compared to dextromethorphan given without bupropion” value in data set [3] (following 8 days of the subject combination, extensive metabolizers) was “approximately 3 fold”. For the same compound, in data set [3], the “accumulation ratio at steady state based on AUC0-12” value is recorded as “about 32” and the “accumulation ratio at steady state based on Cmax” value was “about 20”. For the same compound, in data set [3] (setting [6]), the “change of Cmax with food” value is recorded as “unchanged” and the “decrease of AUC0-12 with food” value is recorded as 14%. For the same compound, in data set [4] (dose administered after steady state (e.g., day 42), read-out: corresponding plasma concentration at about 12 hours after a dose), the concentration at 12 h was about 19 ng/mL. The concentration at 24 h in data set [4] (under 100% adherent conditions, read-out: plasma concentration cutoff approximating the lowest observed concentration 24 hours after the last dose) is about 15 ng/mL.
As to `CC(NC(C)(C)C)C(O)c1cccc(Cl)c1` (centres unmarked) [erythrohydroxybupropion], in data set [3], the “AUC0-12 of metabolite relative to that of bupropion” value is “about 1.2 times” and the “Cmax of metabolite relative to peak level of bupropion” value is “approximately equal to”. Further, the “apparent elimination half-life (metabolites)” value (“apparent elimination half-life” for short) in data set [3] (human) was about 44 h.
Take `C[C@H]1NC(C)(C)CO[C@]1(O)c1cccc(Cl)c1` [hydroxybupropion]: in data set [3], the “AUC0-12 of metabolite relative to that of bupropion” value was “about 19 times” and the “Cmax of metabolite relative to peak level of bupropion” value is “approximately 14 times”. Further, in data set [3] (human), the “apparent elimination half-life” value is on record as “approximately 35 hours”.
With `C[C@H](NC(C)(C)C)[C@@H](O)c1cccc(Cl)c1` [threohydroxybupropion], in data set [3], the “AUC0-12 of metabolite relative to that of bupropion” value is “about 7 times” and the “Cmax of metabolite relative to peak level of bupropion” value is recorded as “about 5 times”. The “apparent elimination half-life” value in data set [3] (human) is about 33 h. The “extent of protein binding compared with bupropion” value in the data set on plasma protein is listed as “about half that seen with bupropion”.

What is called Tmax is the time at which the peak concentration occurs. By fraction unbound is commonly meant free concentration divided by total concentration.
